In patent publication US9410958B2, “Alkyne-activated fluorogenic azide compounds and methods of use thereof” (The Regents of the University of California, priority 2014, dated 2016):

Assays:
[1] = system: sialic acids in developing zebrafish; test: Visualizing sialic acids in developing zebrafish; type: in vivo; conditions: 24 or 36 hpf, imaged without washing
Protocol: The probes were tested for visualization of glycans in vivo. […] To test the utility of CalFluors in this system for such applications, zebrafish embryos at the single-cell stage were injected with SiaNAl. After either 24 or 36 hours post fertilization (hpf), the embryos were bathed in a solution containing a CalFluor probe along with copper catalyst.
Zebrafish were injected with 50 pmol SiaNAl at the one to four-cell stage and allowed to develop over time. (A) Real-time labeling of sialic acids. After 24 hpf, zebrafish were incubated in a solution containing 1 μM CalFluor 580 and copper catalyst. […] (B) Comparing no-wash labeling performance by azide probes. After 36 hpf, the embryos were transferred to a solution containing the fluorophore (1 μM for CalFluor 580 and AlexaFluor 594 alkyl azide, or 5 μM for 3-azido-7-hydroxycoumarin) and copper catalyst and imaged without washing after 20 minutes.

fixed HEK 293T cells = test: No-wash labeling of glycoproteins on fixed cells; type: cell-based; conditions: 10 μM probe, 100 μM TBTA, 1 mM CuSO4, 2 mM sodium ascorbate
Protocol: (A) Labeling glycoproteins on live cell surfaces. […] (B) Labeling glycoproteins on fixed cells.
Fixed (3% paraformaldehyde) Ac4ManNAl-treated HEK 293T cells were also evaluated as substrates CalFluor labeling. In this case, copper-click reaction with 50 μM CuSO4 and 300 μM BTTAA gave poor labeling, potentially due to sequestration of the copper catalyst by denatured proteins. However, use of higher catalyst concentrations (100 μM TBTA, 1 mM CuSO4, 2 mM sodium ascorbate) gave robust labeling with 10 μM CalFluor dyes (FIG. 34B). […] Similar results were achieved when performing the same experiments on fixed CHO K1 cells.

[2] = Photophysical properties and fluorescence quantum yields of Si-rhodamines in PBS pH 7.4; type: physicochemical
Protocol: The fluorescence quantum yields of the purified amino, azido, and triazolyl Si-rhodamines were measured in pH 7.4 phosphate buffered saline (PBS) using cresyl violet in methanol (Φfl=0.54) as a standard (Table 1). […] The best candidate of the four, 8-azidonaphthyl-substituted Si-rhodamine 1, afforded only a 5-fold increase in fluorescence quantum yield as compared with the 29-fold enhancement observed with the corresponding fluorescein.
Fluorescence quantum yields were measured by creating 2 mM stocks of dyes in MeOH. The dyes were then diluted to 20 μM in PBS, then further diluted in PBS to various final concentrations. The absorbance and emission spectra of five different concentrations of dye were measured while keeping maximum absorbance under 0.2. Solutions of probe were excited at 600 nm, and emission was integrated from 600 to 800 nm. Plotting integrated emission vs. absorbance at 600 nm yielded a line, whose slope corresponds to the fluorescence quantum yield. Absolute quantum yields were determined by comparison with the slope of the line measured for cresyl violet in MeOH (Φfl=0.54). The reported quantum yields are the average of three sets of measurements. Absorbance spectra were recorded on a Varian Cary 50 UV-Visible spectrophotometer. Fluorescence spectra were recorded on a Photon Technology International Quanta Master 4 L-format scanning spectrofluorometer equipped with an LPS-220B 75-W xenon lamp and power supply, A-1010B lamp housing with an integrated igniter, switchable 814 photon counting/analog photomultiplier detection unit, and MD5020 motor driver. Measurements were made in 1 cm×0.4 cm quartz cuvettes with a total sample volume of 1 mL.

mammalian cells = test: Mammalian cell surface labeling of Ac4ManNAl-treated cells; type: cell-based; conditions: cells labeled with Ac4ManNAl
Protocol: Compound 9 was tested as a biological imaging reagent using mammalian cells that had been metabolically labeled with peracetylated N-pentynoylmannosamine (Ac4ManNAl), which is metabolized to N-pentynoyl sialic acid (SiaNAl) and presented on cell-surface glycoconjugates. […] It was hypothesized that replacing the methoxy groups with more water soluble alkoxy substituents would maintain the electronic balance between the pendant aryl and the Si-xanthene moieties while enhancing hydrophilicity. To this end, compound 10 was synthesized in six steps from 2,4-difluoronitrobenzene (FIG. 5, and Scheme 1).
Finally, 2.5 μL 1 mM azido fluorophore in 4:1 PBS/MeOH was added. […] Microscopy was performed using a Zeiss AxioVert 200M inverted microscope using a Plan-Neofluar 40×/0.75 objective. Exposure time was 1000 ms using the FITC, Cy3, or Cy5 filters. Images were acquired and processed using SlideBook 5.0, and are shown as a single z-plane.

HEK 293T cells = test: No-wash live cell surface labeling and mitochondrial co-staining, HEK 293T
Protocol: Cells were grown in 8-well Lab-Tek Chambered Coverglass systems in media (HAM-F12 for CHO K1 cells, DMEM for HEK 293T cells) containing 10% fetal bovine serum, penicillin/streptomycin, and either 50 μM Ac4ManNAl or Ac4ManNAc for 3 d at 37° C., as described previously. The cells were then washed with 3×300 μL PBS, then incubated with 100 μL freshly prepared click solution. Click solution comprised of 50 μM CuSO4, 300 μM BTTAA, 2.5 mM sodium ascorbate, and 5 μM azido Si-rhodamine. This was prepared by first adding 0.5 μL 50 mM CuSO4 in H2O and 3 μL 50 mM BTTAA in H2O to 481.5 μL PBS. Next, 12.5 μL freshly prepared 100 mM sodium ascorbate in PBS was added. Finally, 2.5 μL 1 mM azido Si-rhodamine in 4:1 PBS/MeOH was added. After 15 min, the reactions were quenched with the addition of 1 μL of 100 mM bathocuproine disulfonate (BCS) in H2O (final concentration 1 mM). […] For real-time imaging, images were acquired as the labeling progressed without quenching the reaction.
HEK 293T cells were grown in a LabTek 8-well chambered glass slide in DMEM containing fetal bovine serum, penicillin/streptomycin for 3 d at 37° C. The cells were then incubated with 100 nM MitoTracker Green FM and 1 μg/mL Hoechst 33342 in fresh media for 30 min at 37° C., then media removed and the cells incubated with 100 μL PBS containing 5 μM 10. The cells were then directly imaged.
The CalFluors' performance in no-wash cell imaging experiments was evaluated. Using established methods, cell-surface glycoconjugates were metabolically labeled with peracetylated N-pentynoyl mannosamine (Ac4ManNAl), which introduces terminal alkyne groups into sialic acid residues (SiaNAl). HEK 293T cells treated in this fashion were then incubated, without fixation, with a cocktail containing 50 μM CuSO4, 300 μM BTTAA, 5 mM sodium ascorbate and 10 μM CalFluor dye.
Cells were grown with 50 μM Ac4ManNAl or Ac4ManNAc for 3 days, then subjected to click labeling with CalFluor probes. (A) Labeling glycoproteins on live cell surfaces. Cells were treated with 10 μM azide probe, 50 μM CuSO4, 300 μM BTTAA ligand, and 5 mM sodium ascorbate. The reaction was quenched with 1 mM BCS and the cells imaged without further wash steps. (B) Labeling glycoproteins on fixed cells. Cells were fixed with 3% paraformaldehyde, then treated with 10 μM CalFluor probe, 1 mM CuSO4, 100 μM TBTA ligand, and 2 mM sodium ascorbate. 0.1 mg/mL BSA was added to prevent the TBTA from precipitating over the course of the reaction.

Escherichia coli = test: No-wash peptidoglycan labeling of Gram-negative Escherichia coli; type: cell-based
Protocol: E. coli incubated with 5 mM endobcnDala or Dala for 2 h from a starting OD of 0.05 and imaged in the presence of 20 μM of azido Si-rhodamine 11 as described above. Only a fraction of the bacteria incubated with endobcnDala were fluorescently labeled under these conditions. (A), (C) Fluorescence and brightfield images of E. coli incubated with 5 mM endobcnDala. (B), (D) Fluorescence and brightfield images of E. coli incubated with 5 mM Dala. Scale bar=10 μm. […] Scale bar=1 μm.
Finally, the bacteria were imaged using the NIR fluorogenic azide probes. It was confirmed that azido Si-rhodamines 9, 10, and 11 would undergo an enhancement in fluorescence upon reaction with cyclooctynes. These probes were incubated with endo-bicyclononynol in vitro to generate triazole products (FIG. 24A). […] All three bacterial strains were incubated with endobcnDala 14 as before, but after washing away excess amino acid, the bacteria were incubated with 10 or 20 μM 11 for 1 hour and directly imaged without washing away excess probe (FIG. 7B). […] While the biosynthetic machinery can tolerate fluorophore-conjugated D-amino acids, allowing one-step PG imaging versus our two-step metabolic/chemical labeling approach, chemical reporter groups are much smaller than long-wavelength fluorophores and therefore minimize possible biological perturbations. […]

[3] = system: M. smegmatis, C. glutamicum, L. monocytogenes; test: No-wash peptidoglycan labeling with compound 11; type: cell-based; conditions: endobcnDala 14-treated, 10 or 20 μM probe, 1 hour
Protocol: Finally, the bacteria were imaged using the NIR fluorogenic azide probes. It was confirmed that azido Si-rhodamines 9, 10, and 11 would undergo an enhancement in fluorescence upon reaction with cyclooctynes. These probes were incubated with endo-bicyclononynol in vitro to generate triazole products (FIG. 24A). […] All three bacterial strains were incubated with endobcnDala 14 as before, but after washing away excess amino acid, the bacteria were incubated with 10 or 20 μM 11 for 1 hour and directly imaged without washing away excess probe (FIG. 7B). […] While the biosynthetic machinery can tolerate fluorophore-conjugated D-amino acids, allowing one-step PG imaging versus our two-step metabolic/chemical labeling approach, chemical reporter groups are much smaller than long-wavelength fluorophores and therefore minimize possible biological perturbations. […] It is hypothesized that the presence of an outer membrane (though apparently not a mycobacterial “mycomembrane”, FIG. 8A-D) limits access of compound 11 to PG. By contrast, smaller dyes were able to access both terminal alkynes and cyclooctynes in metabolically labeled E. coli PG (FIG. 27).
The bacteria were incubated with either endobcnDala or Dala and washed as described above. […]

CHO K1 cells = test: No-wash cell surface labeling of SiaNAl residues, CHO K1; type: cell-based
Protocol: Si-rhodamine 10 was evaluated as a reagent for imaging SiaNAl residues on live cell surfaces. CHO K1 cells were incubated with 50 μM Ac4ManNAl for 3 days, washed, and then incubated with 5 μM 10, 50 μM CuSO4, 300 μM BTTAA, and 1 mM sodium ascorbate. […] Cell-surface glycan labeling was visualized as it occurred in real time (FIG. 14). Background labeling was minimal on control cells treated with N-acetylmannosamine (Ac4ManNAc) (FIG. 13).

[4] = system: wild-type L. monocytogenes; test: D-alanine competition experiment; conditions: 5 mM cyclooctyne amino acid, 0 or 20 mM D-alanine
Protocol: The bacteria were incubated with 5 mM cyclooctyne amino acid, in the presence of either 0 or 20 mM D-alanine, and labeled following the general procedure.
Bacteria were grown to an optical density (OD) of 0.4 in their respective media (7H9 for M. smegmatis, LB for C. glutamicum, BHI for L. monocytogenes) at 37° C. (M. smegmatis and L. monocytogenes) or 30° C. (C. glutamicum). Then, 5 mM D-amino acid was added (from a 1 M stock in H2O, 1 eq. NaOH was added to help solubilize compounds 12, 13, and 14) and the cells grown for one doubling time. The bacteria were then added to a 96-well V-bottom plate at 200 μL/well and pelleted by centrifugation at 3500 rpm for 3 min. The supernatant was removed and the cells resuspended in 200 μL PBS and pelleted again. This wash process was repeated twice more. The cells were then incubated with 100 μL of 20 μM azido-PEG3-carboxyrhodamine 110 (Click Chemistry Tools) in PBS (made by diluting a 1 mM stock in 9:1 PBS/DMSO) and placed in a 37° C. shaker for 1 h. Alternatively, for alkDala, labeling was performed by incubation with 100 μL of 20 μM azido-PEG3-carboxyrhodamine 110, 128 μM TBTA, 1 mM CuSO4, and 1.2 mM sodium ascorbate in PBS in a 37° C. shaker for 1 h. The cells were washed three times, then fixed with 4% paraformaldehyde for 10 min at rt. The cells were washed another three times, then studied by flow cytometry and microscopy.

[5] = in methanol; cited from earlier work

## [N-]=[N+]=Nc1cc2ccc(O)cc2oc1=O
[1]
  no-wash alkyne-dependent labeling: obscured alkyne-dependent labeling
Fixed HEK 293T cells
  labeling of fixed cells: performed comparably to the CalFluors

## COc1cc(OC)c(C2=C3C=CC(=[N+](C)C)C=C3[Si](C)(C)c3cc(N(C)C)ccc32)cc1N=[N+]=[N-] [Compound 9-N3, 3-Azido-4,6-dimethoxy-Si-rhodamine]
[2]
  λabs: 654 nm
  λem: 666 nm
[2]; cresyl violet in methanol as standard
  Φfl: 0.0042
[2]; increase (↑), triazole relative to the azide
  Change in Φfl: 48 fold
Mammalian cells
  background labeling: significant alkyne-independent background labeling even after repeated washing steps

## CN(C)c1ccc2c(c1)[Si](C)(C)C1=CC(=[N+](C)C)C=CC1=C2c1cc(N=[N+]=[N-])c(OCCOCCOS(=O)(=O)O)cc1OCCOCCOS(=O)(=O)[O-] [Compound 11]
HEK 293T cells; Ac4ManNAl-treated HEK 293T, no wash
  cell-surface labeling: robust cell-surface labeling
HEK 293T cells; HEK 293T
  background, intracellular or mitochondrial labeling: no unwanted background or mitochondrial labeling
  cell permeability: not cell permeable
Escherichia coli; 5 mM endobcnDala, 20 μM probe
  labeling of peptidoglycan with dye: not efficiently labeled
[3]
  no-wash fluorescence signal on bacteria: Clear fluorescence signal over background
CHO K1 cells; Ac4ManNAl-treated CHO K1, no wash, 15 min
  cell-surface labeling: robust cell-surface labeling
CHO K1 cells; CHO K1, control or unwanted labeling
  background labeling: no unwanted background or mitochondrial labeling

## NC(CNC(=O)OC[C@@H]1[C@@H]2CCC#CCC[C@@H]21)C(=O)O (some centres unmarked) [Compound 14]
Escherichia coli
  metabolic incorporation of D-amino acid: similarly to the Gram-positive bacteria
[4]
  effect of excess D-alanine on labeling: excess D-alanine decreases the fluorescence intensity

## cresyl violet
[5]
  Φfl of the standard: 0.54
